Measured values reported in patent US7279175B2, “Stent coated with a sustained-release drug delivery and method for use thereof” (Psivida Inc., priority 2001, dated 2007).

Key:
[1] = In vitro release from stents coated with 1:1 mixture of TA and 5FU without chemical linkage; type: physicochemical; conditions: mixture coating, 0.1M phosphate buffer pH 7.4, 37° C.
Description: Stents were coated with a mixture of TA and 5FU in a mole-ratio of 1 to 1 without chemical linkage. The release rate was determined in vitro by placing the coated stents in 0.1M phosphate buffer (pH 7.4) at 37° C. Samples of the buffer solution were periodically removed for analysis by HPLC, and the buffer was replaced to avoid any saturation effects.
Because of the hydrophilic nature of 5FU, this compound was released from the mixture coating much faster than from the codrug coating. Within 4 weeks, more than 95% of total 5FU was released. TA release from the drug mixture coating was much slower, with about 20% TA released over the first 6 weeks.

[2] = Release test from silicone-coated glass plates into phosphate buffer (HPLC); conditions: silicone coating, up to day 6; detected plus hydrolyzed
Description: Samples were taken daily, and the entire release media was replaced with fresh media at each sampling time. […] Again, the data represent both intact and constituents of the inventive compound.

[3] = Release test from PVA-coated glass plates into phosphate buffer (HPLC); type: physicochemical; conditions: 0.1 M phosphate buffer pH 7.4, 37° C., intact plus constituents

Compound: O=c1[nH]cc(F)c(=O)[nH]1 [5FU, 5-fluorouracil]
- total 5FU released ([1]; within 4 weeks): more than 95%

Compound: CC1(C)O[C@@H]2C[C@H]3[C@@H]4CCC5=CC(=O)C=C[C@]5(C)[C@@]4(F)[C@@H](O)C[C@]3(C)[C@]2(C(=O)CO)O1 [TA, triamcinolone acetonide]
- TA released ([1]; over the first 6 weeks): about 20%

Compound: COc1ccc2cc(C(C)C(=O)OCn3cc(F)c(=O)[nH]c3=O)ccc2c1 (stereo not shown) [TC-112]
- total TC-112 released [2]: 122.4 mg
- release rate (slope of total cumulative release curve) [3]: 10 µg/day
